From US6472348B1, “Pyridone derivatives and herbicides” (Kumiai Chemical Industry Co., Ltd., priority 1996, dated 2002)

Key:
Type in all cases: in vivo
barnyardgrass (Ec) [1] = assay: Test Example 3: herbicidal effects by upland field foliage treatment; set-up: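 grade of growth control; 5 = at least 90%; 4 = 70 to 90%; 3 = 50 to 70%; 2 = 30 to 50%; 1 = 10 to 30%; 0 = under 10%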; details: 100 g of the active ingredient per 10 ares, evaluated on the 14th day after treatment
Procedure: (§1) (Test on Herbicidal Effects by Upland Field Foliage Treatment)
(§2) In a plastic pot (surface area: 120 cm^2) filled with sand, barnyardgrass (Ec), Diaitaria ciliaris (Di), pale smartweed (Po), slender amaranth (Am), common lambsquarters (Ch) and rice flatsedge (Ci) were sown and covered with soil and were cultured in a green house for 2 weeks. […] The plants were then cultured in the green house, and the evaluation of the herbicidal effects was conducted on the 14th day after the treatment in accordance with the standards as identified in Table 47. Symbol—represents “not tested”.

slender amaranth (Am) = assay: as above; set-up: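 grade of growth control; 5 = at least 90%; 4 = 70 to 90%; 3 = 50 to 70%; 2 = 30 to 50%; 1 = 10 to 30%; 0 = under 10%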; details: 100 g of the active ingredient per 10 ares, evaluated on the 14th day after treatment
Procedure: as §1, §2

pale smartweed (Po) = assay: as above; set-up: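 grade of growth control; 5 = at least 90%; 4 = 70 to 90%; 3 = 50 to 70%; 2 = 30 to 50%; 1 = 10 to 30%; 0 = under 10%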; details: 100 g of the active ingredient per 10 ares, evaluated on the 14th day after treatment
Procedure: as §1, §2

rice flatsedge (Ci) = assay: as above; set-up: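 grade of growth control; 5 = at least 90%; 4 = 70 to 90%; 3 = 50 to 70%; 2 = 30 to 50%; 1 = 10 to 30%; 0 = under 10%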; details: 100 g of the active ingredient per 10 ares, evaluated on the 14th day after treatment
Procedure: as §1, §2

Diaitaria ciliaris (Di) = assay: as above; set-up: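 grade of growth control; 5 = at least 90%; 4 = 70 to 90%; 3 = 50 to 70%; 2 = 30 to 50%; 1 = 10 to 30%; 0 = under 10%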; details: 100 g of the active ingredient per 10 ares, evaluated on the 14th day after treatment
Procedure: as §1, §2

[2] = tested on: common lambsquarters (Ch); assay: as above; set-up: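 grade of growth control; 5 = at least 90%; 4 = 70 to 90%; 3 = 50 to 70%; 2 = 30 to 50%; 1 = 10 to 30%; 0 = under 10%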; details: 100 g of the active ingredient per 10 ares, evaluated on the 14th day after treatment
Procedure: as §1, §2

barnyardgrass (Ec) [3] = assay: Test Example 1: herbicidal effects by paddy field soil treatment; details: 100 g of the active ingredient per 10 ares, 21st day after the application, index 0-5 of Table 47;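 also: grade of growth control; 5 = at least 90%; 4 = 70 to 90%; 3 = 50 to 70%; 2 = 30 to 50%; 1 = 10 to 30%; 0 = under 10%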
Procedure: (§3) (Test on Herbicidal Effects by Paddy Field Soil Treatment)
(§4) In a plastic pot (surface area: 100 cm^2) filled with paddy field soil, barnyardgrass (Ec), monochoria (Mo) and bulrush (Sc) were sown after puddling and leveling, and flooded to a water depth of 3 cm. […] The dose was 100 g of the active ingredient per 10 ares. The plants were then cultured in a green house, and the evaluation of the herbicidal effects was conducted on the 21st day after the application in accordance with the standards as identified in Table 47.

bulrush (Sc) = assay: as above; details: 100 g of the active ingredient per 10 ares, 21st day after the application, index 0-5 of Table 47;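 also: grade of growth control; 5 = at least 90%; 4 = 70 to 90%; 3 = 50 to 70%; 2 = 30 to 50%; 1 = 10 to 30%; 0 = under 10%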
Procedure: as §3, §4

monochoria (Mo) = assay: as above; details: 100 g of the active ingredient per 10 ares, 21st day after the application, index 0-5 of Table 47;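 also: grade of growth control; 5 = at least 90%; 4 = 70 to 90%; 3 = 50 to 70%; 2 = 30 to 50%; 1 = 10 to 30%; 0 = under 10%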
Procedure: as §3, §4

Row | SMILES | Herbicidal effects Ec (barnyardgrass (Ec) [1]) | Herbicidal effects Am (slender amaranth (Am)) | Herbicidal effects Po (pale smartweed (Po)) | Herbicidal effects Ci (rice flatsedge (Ci)) | Herbicidal effects Di (Diaitaria ciliaris (Di)) | Herbicidal effects Ch [2] | Herbicidal effects Ec (barnyardgrass (Ec) [3]) | Herbicidal effects Sc (bulrush (Sc)) | Herbicidal effects Mo (monochoria (Mo))
1 | CCCC(Sc1cc(-c2ccc(C(F)(F)F)n(C)c2=O)ccc1Cl)C(=O)OCC (racemic) [1-116] | 4 | 5 | 5 | 5 | 4 | 5 |  |  | 
2 | CCOC(=O)C(C)Sc1cc(-c2ccc(C(F)(F)F)n(C)c2=O)c(Cl)cc1Cl (racemic) [1-124] | 5 | 5 | 5 | 5 | 5 | 5 | 5 | 5 | 5
3 | Cn1c(C(F)(F)F)ccc(-c2cc(OCc3ccccc3)c(Cl)cc2F)c1=O [1-23] |  |  |  |  |  |  | 5 | 5 | 5
4 | CCOC(=O)COc1cc(-c2ccc(C(F)(F)F)n(C)c2=O)c(Cl)cc1Cl [1-33] | 5 | 5 | 4 | 5 | 4 | 5 | 5 | 5 | 5
5 | Cn1c(C(F)(F)F)ccc(-c2cc(Oc3ccccc3)c(Cl)cc2Cl)c1=O [1-36] |  |  |  |  |  |  | 5 | 5 | 5
6 | Cn1c(C(F)(F)F)ccc(-c2cc(OC3CCCC3)c(Cl)cc2Cl)c1=O [1-40] |  |  |  |  |  |  | 5 | 5 | 5
7 | CCOC(=O)CSc1cc(-c2ccc(C(F)(F)F)n(C)c2=O)c(F)cc1Cl [1-45] | 5 | 5 | 5 | 5 | 5 | 5 | 5 | 5 | 5
8 | COC(=O)CSc1cc(-c2ccc(C(F)(F)F)n(C)c2=O)c(F)cc1Cl [1-46] | 5 | 5 | 5 | 5 | 5 | 5 | 5 | 5 | 5
9 | Cn1c(C(F)(F)F)ccc(-c2cc(SCC(=O)OC3CCCC3)c(Cl)cc2F)c1=O [1-47] |  |  |  |  |  |  | 5 | 5 | 5
10 | COCCOC(=O)CSc1cc(-c2ccc(C(F)(F)F)n(C)c2=O)c(F)cc1Cl [1-49] | 5 | 5 | 5 | 5 | 5 | 5 | 5 | 5 | 5
11 | CCOC(=O)CSc1cc(-c2ccc(C(F)(F)F)n(C)c2=O)c(Cl)cc1Cl [1-53] |  |  |  |  |  |  | 5 | 5 | 5
12 | COC(=O)CSc1cc(-c2ccc(C(F)(F)F)n(C)c2=O)c(Cl)cc1Cl [1-54] | 5 | 5 | 4 | 5 | 5 | 5 | 5 | 5 | 5
13 | CCOC(=O)CNc1cc(-c2ccc(C(F)(F)F)n(C)c2=O)c(F)cc1Cl [1-63] | 5 | 5 | 5 | 5 | 5 | 5 |  |  | 
14 | CC(C)=NOC(=O)c1cc(-c2ccc(C(F)(F)F)n(C)c2=O)c(F)cc1Cl [1-68] | 5 | 5 | 5 | 5 | 5 | 5 | 5 | 5 | 5
15 | COC(=O)C(Cl)Cc1cc(-c2ccc(C(F)(F)F)n(C)c2=O)c(F)cc1Cl (stereo not drawn) [1-70] | 5 | 5 | 5 | 5 | 5 | 5 | 5 | 5 | 5
16 | Cn1c(C(F)(F)F)ccc(-c2cc(NS(C)(=O)=O)c(Cl)cc2Cl)c1=O [1-75] |  |  |  |  |  |  | 5 | 5 | 5

Row | SMILES | Herbicidal effects Ec (barnyardgrass (Ec) [1]) | Herbicidal effects Am (slender amaranth (Am)) | Herbicidal effects Po (pale smartweed (Po)) | Herbicidal effects Ci (rice flatsedge (Ci)) | Herbicidal effects Di (Diaitaria ciliaris (Di)) | Herbicidal effects Ch [2] | Herbicidal effects Ec (barnyardgrass (Ec) [3]) | Herbicidal effects Sc (bulrush (Sc)) | Herbicidal effects Mo (monochoria (Mo))
17 | Cc1cc(-c2ccc(Cl)cc2Cl)c(=O)[nH]c1C(F)(F)F [1-97] |  |  |  |  |  |  | 5 | 5 | 5
18 | CCOC(=O)COc1cc(-c2ccc(C(F)(F)F)n(C)c2=O)ccc1Cl [1-107] |  |  |  |  |  |  | 5 | 5 | 5
19 | Cn1c(C(F)(F)F)ccc(-c2ccc(Cl)c(SCC(=O)OC3CCCC3)c2)c1=O [1-115] |  |  |  |  |  |  | 5 | 5 | 5
20 | CCCCCOC(=O)CSc1cc(-c2ccc(C(F)(F)F)n(C)c2=O)c(Cl)cc1Cl [1-123] | 4 | 5 | 5 | 5 | 5 | 5 | 5 | 5 | 5
21 | Cn1c(C(F)(F)F)ccc(-c2cc(SCC(=O)O)c(Cl)cc2Cl)c1=O [1-127] | 4 | 5 | 5 | 5 | 5 | 5 | 5 | 5 | 5
22 | Cn1c(C(F)(F)F)ccc(-c2cc(SC3CCCC3)c(Cl)cc2Cl)c1=O [1-128] |  |  |  |  |  |  | 5 | 4 | 5
23 | CC(C)OCCOC(=O)CSc1cc(-c2ccc(C(F)(F)F)n(C)c2=O)c(Cl)cc1Cl [1-129] | 5 | 5 | 5 | 5 | 5 | 5 |  |  | 
24 | CCCOC(=O)CSc1cc(-c2ccc(C(F)(F)F)n(C)c2=O)c(Cl)cc1Cl [1-130] |  |  |  |  |  |  | 5 | 5 | 5
25 | CCOC(=O)COC(=O)c1cc(-c2ccc(C(F)(F)F)n(C)c2=O)c(F)cc1Cl [1-142] | 5 | 5 | 5 | 5 | 5 | 5 | 5 | 5 | 5
26 | Cn1c(C(F)(F)F)ccc(-c2cc(C(=O)NS(C)(=O)=O)c(Cl)cc2F)c1=O [1-147] |  |  |  |  |  |  | 5 | 5 | 5
27 | COC(=O)Oc1cc(-c2ccc(C(F)(F)F)n(C)c2=O)c(F)cc1Cl [1-153] |  |  |  |  |  |  | 5 | 5 | 5
28 | Cn1c(C(F)(F)F)ccc(-c2ccc3c(c2)NC(=O)CO3)c1=O [2-30] |  |  |  |  |  |  | 5 | 5 | 5
29 | Cn1c(C(F)(F)F)ccc(-c2cc(OC3CCCO3)c(Cl)cc2Cl)c1=O (stereo not drawn) [Compound 1-212] |  |  |  |  |  |  | 5 | 4 | 5
30 | Cn1c(C(F)(F)F)ccc(-c2cc3c(cc2F)OCC(=O)N3CC2CO2)c1=O (stereo not drawn) [Compound 2-20] |  |  |  |  |  |  | 5 | 5 | 5
31 | Cn1cc(-c2ccc(Cl)cc2)c(=O)cc1C(F)(F)F [Compound 6-1] |  |  |  |  |  |  | 5 | 5 | 5
32 | CCOC(=O)C(Cl)Cc1cc(-c2ccc(C(F)(F)F)n(C)c2=O)c(F)cc1Cl (stereo not drawn) [Compound No. 1-139, ethyl 2-chloro-3-[2-chloro-4-fluoro-5-(1methyl-6-trifluoromethyl-2(1H)pyridon-3-yl)]phenyl propionate] | 5 | 5 | 5 | 5 | 5 | 5 |  |  | 
